Source: patent publication US5401514A, “Solid, fast-soluble pharmaceutical preparation containing S-(carboxymethyl)-L-cysteine and/or N-acetylcysteine” (Spirig AG, Pharmazeutische Praeparate, priority 1990, dated 1995)

Experiments:
[1] = Comparative bioavailability test in 10 subjects, plasma N-acetylcysteine by HPLC (tributyl phosphine reduction, o-phthalaldehyde post-column derivatization), oral 200 mg
Source text: A process for quantitative determination of N-acetylcysteine in plasma was used, which split the active ingredient with tributyl phosphine reductively and derivatized in with a post-HPLC column using o-phthalaldehyde.
The comparative test is documented in Biopharmaceutics & Drug Disposition, Vol. 12, 343-353 (1991).

[2] = background knowledge; cited from earlier work

In the case of `CC(=O)N[C@@H](CS)C(=O)O` [N-acetylcysteine], the “endogenous average concentrations in plasma” value ([1]; human, in vivo) is given as 0.08 µM, the “Cmax relative to endogenous plasma values” ([1]; one 200 mg dose, oral, up to) is given as “up to 20 times” and the main effect [2] is given as “expectorant”. For the same compound, the tolerability [2] was “very well tolerated”.
For `N[C@@H](CSCC(=O)O)C(=O)O` [carbocysteine, S-(carboxymethyl)-L-cysteine], the main effect [2] is given as “expectorant” and the tolerability [2] is given as “very well tolerated”.
